The values that follow come from ChEMBL document CHEMBL1150276, “2-amino-1,3-thiazol-4(5H)-ones as potent and selective 11beta-hydroxysteroid dehydrogenase type 1 inhibitors: enzyme-ligand co-crystal structure and demonstration of pharmacodynamic effects in C57Bl/6 mice” (J Med Chem, 2008).

Series [1] concerns the target 11-beta-hydroxysteroid dehydrogenase 1 (Homo sapiens, UniProt P28845).
Description: Binding affinity to human 11beta HSD1 expressed in Escherichia coli by scintillation proximity assay
Series [2] concerns the target T1, 11-beta-hydroxysteroid dehydrogenase type 2 (Homo sapiens, UniProt P80365).
T1 sequence (P80365 whole entry): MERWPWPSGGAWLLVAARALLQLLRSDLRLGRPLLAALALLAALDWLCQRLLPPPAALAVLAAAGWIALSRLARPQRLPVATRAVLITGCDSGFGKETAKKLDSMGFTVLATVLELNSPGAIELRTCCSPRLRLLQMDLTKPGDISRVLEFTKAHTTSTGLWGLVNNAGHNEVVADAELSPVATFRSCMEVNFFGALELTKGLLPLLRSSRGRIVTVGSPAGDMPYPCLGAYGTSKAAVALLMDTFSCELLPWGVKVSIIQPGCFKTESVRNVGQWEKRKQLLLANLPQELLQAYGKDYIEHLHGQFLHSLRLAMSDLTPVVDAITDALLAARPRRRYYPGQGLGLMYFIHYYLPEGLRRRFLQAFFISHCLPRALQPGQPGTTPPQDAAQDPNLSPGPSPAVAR
Description: biochemical.
Description: Binding affinity to human 11beta HSD2 in HEK293 cells by scintillation proximity assay

The nature of series [3]: Clearance in rat at 0.5 mg/kg, iv. Format: ADME, organism-based. More on the design: dose 0.5 mg/kg, route intravenous. Conditions: in vivo.
Series [4] has as its target 11-beta-hydroxysteroid dehydrogenase 1 (Mus musculus, UniProt P50172). Description: Binding affinity to C57BL/6 mouse recombinant 11beta HSD1 by scintillation proximity assay. Background: SPA uses beads or plates that emit light when radiolabelled molecules are held near them.
Series [5] relates to Mus musculus. Put plainly: Ex vivo inhibition of 11beta HSD1 activity in C57BL/6 mouse liver at 30 mg/kg, po after 2 hrs. Format: functional. Also noted: scale not given: the % may be the effect or the level left.
Series [6] is described as follows: Ratio of Ki for mouse 11beta HSD1 over Ki for human 11beta HSD1.
The nature of series [7]: Oral bioavailability in rat at 2 mg/kg. Format: ADME, organism-based. Conditions: in vivo.
Series [8] can be described thus: Plasma concentration in C57BL/6 mouse plasma at 30 mg/kg, po after 2 hrs. Format: ADME, organism-based. More on the design: dose 30 mg/kg, route oral.
Series [9] deals with Mus musculus. Description: Ex vivo inhibition of 11beta HSD1 activity in C57BL/6 mouse adipose tissue at 30 mg/kg, po after 2 hrs. Type of series: functional. Also noted: scale not given: the % may be the effect or the level left.
Series [10] is described as follows: Half life in rat at 2 mg/kg, po. Format: ADME, organism-based. More on the design: dose 2 mg/kg, route oral. Conditions: in vivo.
Series [11] can be described thus: Plasma concentration in C57BL/6 mouse plasma at 30 mg/kg, po after 6 hrs. Format: ADME, organism-based. Also noted: dose 30 mg/kg, route oral.
The target in series [12] is 11-beta-hydroxysteroid dehydrogenase 1 (Rattus norvegicus, UniProt P16232). Put plainly: Binding affinity to rat recombinant 11beta HSD1 by scintillation proximity assay.
Chain of 11-beta-hydroxysteroid dehydrogenase 1 (Rattus norvegicus, UniProt P16232) (P16232 whole entry): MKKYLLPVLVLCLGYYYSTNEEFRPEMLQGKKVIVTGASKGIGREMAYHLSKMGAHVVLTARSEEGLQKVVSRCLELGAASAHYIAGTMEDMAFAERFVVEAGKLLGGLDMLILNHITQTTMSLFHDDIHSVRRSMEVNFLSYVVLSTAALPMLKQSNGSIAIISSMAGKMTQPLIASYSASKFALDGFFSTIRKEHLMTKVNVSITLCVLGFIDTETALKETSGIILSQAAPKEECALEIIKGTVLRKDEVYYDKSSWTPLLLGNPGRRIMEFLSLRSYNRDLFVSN
The test system of series [13] is Mus musculus. Description: Ex vivo inhibition of 11beta HSD1 activity in C57BL/6 mouse liver at 30 mg/kg, po after 6 hrs. Also noted: scale not given: the % may be the effect or the level left. Format: functional.
Series [14] relates to Plasma. Description: Protein binding in C57BL/6 mouse plasma assessed as fraction unbound at 30 mg/kg, po after 2 hrs. Also noted: dose 30 mg/kg, route oral. Format: ADME, organism-based. To be noted: in vivo.
In series [15] the test system is Mus musculus. Description: Ex vivo inhibition of 11beta HSD1 activity in C57BL/6 mouse adipose tissue at 30 mg/kg, po after 6 hrs. Format: functional. More on the design: scale not given: the % may be the effect or the level left.
A short description of series [16]: Tmax in rat at 2 mg/kg, po. To be noted: in vivo. Format: ADME, organism-based. More on the design: dose 2 mg/kg, route oral.
Series [17] relates to Rattus norvegicus. Description: AUC(0 to infinity) in rat at 2 mg/kg, po. Format: ADME, organism-based, Plasma. Also noted: time infinity, dose 2 mg/kg, route oral. Conditions: in vivo.
The subject of series [18] is Plasma. Put plainly: Protein binding in C57BL/6 mouse plasma assessed as fraction unbound at 30 mg/kg, po after 6 hrs. Format: ADME, organism-based. More on the design: dose 30 mg/kg, route oral. To be noted: in vivo.
A short description of series [19]: Volume of distribution at steady state in rat at 0.5 mg/kg, iv. Type of series: ADME, organism-based. Also noted: dose 0.5 mg/kg, route intravenous. To be noted: in vivo, read-out: Vdss.

pIC50, pKi: −log10 of the molar value.

Chain of 11-beta-hydroxysteroid dehydrogenase 1 (Homo sapiens, UniProt P28845) (P28845 whole entry): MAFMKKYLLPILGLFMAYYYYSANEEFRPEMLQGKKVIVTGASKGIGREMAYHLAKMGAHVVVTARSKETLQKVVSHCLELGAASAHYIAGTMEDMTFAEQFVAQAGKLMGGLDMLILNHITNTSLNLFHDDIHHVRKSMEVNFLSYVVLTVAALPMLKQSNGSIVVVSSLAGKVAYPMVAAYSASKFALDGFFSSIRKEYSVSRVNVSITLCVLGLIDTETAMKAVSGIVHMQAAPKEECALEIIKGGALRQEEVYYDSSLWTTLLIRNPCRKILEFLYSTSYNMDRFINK
Chain of 11-beta-hydroxysteroid dehydrogenase 1 (Mus musculus, UniProt P50172) (P50172 whole entry): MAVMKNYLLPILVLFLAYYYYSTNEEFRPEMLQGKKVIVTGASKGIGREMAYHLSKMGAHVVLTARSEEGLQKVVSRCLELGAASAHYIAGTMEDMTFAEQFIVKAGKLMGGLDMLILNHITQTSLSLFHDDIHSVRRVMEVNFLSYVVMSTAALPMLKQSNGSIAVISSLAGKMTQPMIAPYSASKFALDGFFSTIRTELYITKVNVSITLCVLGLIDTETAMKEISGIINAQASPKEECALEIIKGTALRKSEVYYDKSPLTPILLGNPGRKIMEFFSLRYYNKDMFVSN

One may read the pKi as the Ki on a negative log10 scale, so that one unit is a factor of ten. Compound `CCCC1(C)SC(NC2CCCCC2)=NC1=O` (racemic) gave a pKi in series [1] of 7.26.
Same read-out and setting: for `CCC1(C)SC(NC2CCCCC2)=NC1=O` (racemic) the value was 6.90; for `O=C1N=C(NC23CC4CC(CC(C4)C2)C3)SC12CCCC2`, 7.55.
As a reminder, the pIC50 is the IC50 on a negative log10 scale, so that one unit is a factor of ten. On to `CCC1(C)SC(NC2CCCCCC2)=NC1=O` (racemic), for which the pKi in series [1] is 7.09. In addition, the pIC50 in series [2] is less than 5.00.
`CCCC1(C)SC(NC23CC4CC(CC(C4)C2)C3)=NC1=O` (racemic): the pKi in [1] is 7.62.
Regarding `CCC1(C)SC(Nc2ccccc2F)=NC1=O` (configuration not stated), in series [1], the pKi was 6.82.
In turn, `CCC1(C)SC(NCC2CCCCC2)=NC1=O` (racemic) showed a pKi in series [1] of 7.19.
Consider `CCC1(CC)SC(NC23CC4CC(CC2C4)C3)=NC1=O`, for which the pKi in [1] is 7.89. Further, the pIC50 in series [2] is less than 5.00.
Compound `CCC1(C)SC(NC2C(C)(C)C2(C)C)=NC1=O` (racemic) had a pKi in series [1] of 7.24.
With `CCC1(C)SC(NC2CCCCCCC2)=NC1=O` (racemic), the pKi in series [1] was 7.33. In addition, the pIC50 in series [2] is less than 5.00.
`CCC1(CC)SC(NC23CC4CC(CC(C4)C2)C3)=NC1=O` had a pKi in [1] of 7.70.
The compound `CCC1(C)SC(NC23CC4CC(CC2C4)C3)=NC1=O` (racemic) had a pKi in series [1] of 7.89. Also, the pIC50 in [2] was less than 5.00.
The corresponding values for `CCC1(CC)SC(NC2CCCCCCC2)=NC1=O` are 7.59 and less than 5.00.
On to `CCCC1(C)SC(NCC2CCCCC2)=NC1=O` (racemic), for which the pKi in series [1] is 7.47.
For `O=C1N=C(NC2CCCCCCC2)SC12CCCC2`, the pKi in [1] is 7.85. The same compound showed a pIC50 in series [2] of less than 5.00.
The compound `CCCC1(C)SC(NC2C(C)(C)C2(C)C)=NC1=O` (racemic) gave a pKi in series [1] of 7.42.
The compound `CCCC1(C)SC(NC2CCCCCCC2)=NC1=O` (racemic) gave a pKi in series [1] of 7.55. Also, in series [2], the pIC50 is less than 5.00.
In series [1], `CCCC1(C)SC(NC2CCCCCC2)=NC1=O` (racemic) had a pKi of 7.49. Besides, in [2], the pIC50 was less than 5.00.
In the case of `CCC1(C)SC(NC2C3CCC2CC3)=NC1=O` (racemic), in series [1], the pKi was 6.43.
Still for that read-out and setting: the same measure for `CCCC1(C)SC(NC23CCC(CC2)C3)=NC1=O` (racemic): 7.60.
Compound `CCC1(C)SC(NC23CCC(CC2)C3)=NC1=O` (racemic) gave a pKi in series [1] of 7.14. This compound gave a pIC50 in series [2] of less than 5.00.
In [1], `CCC1(C)SC(NC23CC4CC(CC(C4)C2)C3)=NC1=O` (racemic) had a negative logarithm of the Ki (pKi) of 7.62.
Still for that read-out and setting: for `CCCC1(C)SC(NC23CC4CC(CC2C4)C3)=NC1=O` (racemic) the value was 7.92.
In turn, `CCC1SC(Nc2ccccc2C)=NC1=O` (configuration not stated) had a pKi in series [1] of 6.72. In addition, in series [2], the pIC50 is less than 5.00.
The corresponding values for `CCCC1(C)SC(NC2C3CCC2CC3)=NC1=O` (racemic) are 6.83 and less than 5.00.
A word on the clearance: it is the volume of plasma or blood freed of the substance per unit of time. The term bioavailability denotes the share of a dose that reaches the circulation, judged against a reference dose that is usually intravenous. One may read the half-life as the time needed for the level to fall by half in the phase considered. As usually defined, the Tmax is the time at which the peak concentration occurs. By AUC is commonly meant the area under the concentration-time curve, a measure of exposure. On to `O=C1N=C(NC23CC4CC(CC2C4)C3)SC12CCCC2`, for which the clearance in series [3] is 104 mL/min/kg. Further, the pKi in series [4] was 6.92; in series [1] it was 8.52; in series [12], 6.74. Moreover, the Activity is reported as 89% in series [5]; 86% in series [9]; 79% in series [13]; 120 nM in series [14]; 87% in series [15]; 44 nM in [18]. Further, in series [6], the Ratio Ki is 40. The bioavailability in [7] is 45%. Besides, in series [8], the concentration at 2 h came to 20 µM. Further, the half-life in series [10] was 2 h. The concentration at 6 h in [11] was found to be 7.3 µM. The compound further gave a pIC50 in [2] of less than 5.00. Besides, the Fu in series [14] and in series [18] was 0.63% in each case. Further, the Tmax in series [16] amounted to 2.5 h. The compound further came in with an AUC in [17] of 175 ng·h/mL. For the same compound, the Vd in series [19] is 1.84 L/kg.
